Counter-ions that a name gives are not always drawn.
Key:
[1] = test system: bacterial strains that express the class D cephalosporinase OXA-15; test: Synergy MIC / standard BLI potentiation MIC assay, strains expressing OXA-15; type: cell-based, E. coli; details: in the presence of a β-lactam; comparator Avibactam (comparator compound CCC)
Procedure, shortened: (§1)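 Broth microdilution in CAMHB per CLSI, ~10^5 CFU/mL, 18-20 h at 37° C; MIC is lowest concentration with no visible turbidity. Potentiation: β-lactam 128-0.13 μg/mL with BLI fixed at 4 μg/mL. Synergy: BLI serially diluted with β-lactam fixed. Engineered E. coli kept on 25 μg/mL tetracycline.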

[2] = test system: bacterial strains that express KPC β-lactamases; test: Synergy MIC / standard BLI potentiation MIC assay, strains expressing KPC β-lactamases; type: cell-based; details: more active for at least one KPC strain and/or better spectrum of activity than Avibactam; in the presence of a β-lactam
Procedure, shortened: as §1

Row | Structure (SMILES) | activity against bacterial strains that express the class D cephalosporinase OXA-15, compared with Avibactam [1] | activity and/or spectrum of activity against bacterial strains that express KPC β-lactamases, compared with Avibactam [2]
1 | N[C@H]1CN[C@@H](c2nnc([C@@H]3CC[C@@H]4CN3C(=O)N4OS(=O)(=O)O)o2)C1 [Compound 761, (2S,5R)-2-(5-((2R,4R)-4-aminopyrrolidin-2-yl)-1,3,4-oxadiazol-2-yl)-7-oxo-1,6-diazabicyclo[3.2.1]octan-6-yl hydrogen sulfate] | more active than Avibactam | more active than Avibactam
2 | N[C@H]1CN[C@H](c2nnc([C@@H]3CC[C@@H]4CN3C(=O)N4OS(=O)(=O)O)o2)C1 [Compound 762, (2S,5R)-2-(5-((2S,4R)-4-aminopyrrolidin-2-yl)-1,3,4-oxadiazol-2-yl)-7-oxo-1,6-diazabicyclo[3.2.1]octan-6-yl hydrogen sulfate] | more active than Avibactam | more active than Avibactam
3 | N[C@@H]1CN[C@@H](c2nnc([C@@H]3CC[C@@H]4CN3C(=O)N4OS(=O)(=O)O)o2)C1 [Compound 763, (2S,5R)-2-(5-((2R,4S)-4-aminopyrrolidin-2-yl)-1,3,4-oxadiazol-2-yl)-7-oxo-1,6-diazabicyclo[3.2.1]octan-6-yl hydrogen sulfate] | more active than Avibactam | more active than Avibactam
4 | O=C1N2C[C@@H](CC[C@H]2c2nnc(CC3CCNC3)o2)N1OS(=O)(=O)O (stereo partly drawn) [Compound 764, (2S,5R)-7-oxo-2-(5-(pyrrolidin-3-ylmethyl)-1,3,4-oxadiazol-2-yl)-1,6-diazabicyclo[3.2.1]octan-6-yl hydrogen sulfate] | more active than Avibactam | more active than Avibactam
5 | O=C1N2C[C@@H](CC[C@H]2c2nnc(CN[C@H]3CCNC3)o2)N1OS(=O)(=O)O [Compound 765, (2S,5R)-7-oxo-2-(5-(((S)-pyrrolidin-3-ylamino)methyl)-1,3,4-oxadiazol-2-yl)-1,6-diazabicyclo[3.2.1]octan-6-yl hydrogen sulfate] | more active than Avibactam | more active than Avibactam
6 | O=C1N2C[C@@H](CC[C@H]2c2nnc(CN[C@@H]3CCNC3)o2)N1OS(=O)(=O)O [Compound 766, (2S,5R)-7-oxo-2-(5-(((R)-pyrrolidin-3-ylamino)methyl)-1,3,4-oxadiazol-2-yl)-1,6-diazabicyclo[3.2.1]octan-6-yl hydrogen sulfate] | more active than Avibactam | more active than Avibactam
7 | N=C1NCC(c2nnc([C@@H]3CC[C@@H]4CN3C(=O)N4OS(=O)(=O)O)o2)N1 (stereo partly drawn) [Compound 767, (2S,5R)-2-(5-(2-iminoimidazolidin-4-yl)-1,3,4-oxadiazol-2-yl)-7-oxo-1,6-diazabicyclo[3.2.1]octan-6-yl hydrogen sulfate] | more active than Avibactam | more active than Avibactam
8 | N[C@H]1CC[C@@H](c2nnc([C@@H]3CC[C@@H]4CN3C(=O)N4OS(=O)(=O)O)o2)C1 [Compound 768, (2S,5R)-2-(5-((1R,3S)-3-aminocyclopentyl)-1,3,4-oxadiazol-2-yl)-7-oxo-1,6-diazabicyclo[3.2.1]octan-6-yl hydrogen sulfate] | more active than Avibactam | more active than Avibactam
9 | O=C1N2C[C@@H](CC[C@H]2c2nnc(CCNC3CCNCC3)o2)N1OS(=O)(=O)O [Compound 770, (2S,5R)-7-oxo-2-(5-(2-(piperidin-4-ylamino)ethyl)-1,3,4-oxadiazol-2-yl)-1,6-diazabicyclo[3.2.1]octan-6-yl hydrogen sulfate] | more active than Avibactam | more active than Avibactam
10 | O=C1N2C[C@@H](CC[C@H]2c2nnc(CCCNC3CCNCC3)o2)N1OS(=O)(=O)O [Compound 771, (2S,5R)-7-oxo-2-(5-(3-(piperidin-4-ylamino)propyl)-1,3,4-oxadiazol-2-yl)-1,6-diazabicyclo[3.2.1]octan-6-yl hydrogen sulfate] | more active than Avibactam | more active than Avibactam
11 | O=C1N2C[C@@H](CC[C@H]2c2nnc(CCCCNC3CCNCC3)o2)N1OS(=O)(=O)O [Compound 772, (2S,5R)-7-oxo-2-(5-(4-(piperidin-4-ylamino)butyl)-1,3,4-oxadiazol-2-yl)-1,6-diazabicyclo[3.2.1]octan-6-yl hydrogen sulfate] | more active than Avibactam | more active than Avibactam
12 | NC1CCN(Cc2nnc([C@@H]3CC[C@@H]4CN3C(=O)N4OS(=O)(=O)O)o2)CC1 [Compound 774, (2S,5R)-2-(5-((4-aminopiperidin-1-yl)methyl)-1,3,4-oxadiazol-2-yl)-7-oxo-1,6-diazabicyclo[3.2.1]octan-6-yl hydrogen sulfate] | more active than Avibactam | more active than Avibactam
13 | O=C1N2C[C@@H](CC[C@H]2c2nnc(CCN3CCNCC3)o2)N1OS(=O)(=O)O [Compound 776, (2S,5R)-7-oxo-2-(5-(2-(piperazin-1-yl)ethyl)-1,3,4-oxadiazol-2-yl)-1,6-diazabicyclo[3.2.1]octan-6-yl hydrogen sulfate] | more active than Avibactam | more active than Avibactam
14 | O=C1N2C[C@@H](CC[C@H]2c2nnc(CN3CCNCC3)o2)N1OS(=O)(=O)O [Compound 777, (2S,5R)-7-oxo-2-(5-(piperazin-1-ylmethyl)-1,3,4-oxadiazol-2-yl)-1,6-diazabicyclo[3.2.1]octan-6-yl hydrogen sulfate] | more active than Avibactam | more active than Avibactam
15 | O=C1N2C[C@@H](CC[C@H]2c2nnc([C@H]3CNCCN3)o2)N1OS(=O)(=O)O [Compound 779, (2S,5R)-7-oxo-2-(5-((R)-piperazin-2-yl)-1,3,4-oxadiazol-2-yl)-1,6-diazabicyclo[3.2.1]octan-6-yl hydrogen sulfate] | more active than Avibactam | more active than Avibactam
